{"source": "the supplement of paper PMC10920090", "key": {"[1]": {"system": "MDA-MB-231", "test": "drug sensitivity score (DSS), cytotoxicity CellTox Green; higher = more cytotoxic; extreme values may be limits of the assay", "settings": "72 h"}, "[2]": {"system": "MDA-MB-231", "test": "drug sensitivity score (DSS), cell viability CellTiter-Glo; higher = more sensitive; extreme values may be limits of the assay", "settings": "72 h"}}}
{"smiles": "C=CC(=O)Nc1cccc(Nc2nc(Nc3ccc(OCCOC)cc3)ncc2F)c1", "note": "[Spebrutinib]", "values": [{"measurement": "drug sensitivity score", "setting": "[1]; shRNA: shPPFIA1_1", "result": 0, "unit": "DSS"}, {"measurement": "drug sensitivity score", "setting": "[1]; shRNA: shScramble", "result": 0, "unit": "DSS"}, {"measurement": "drug sensitivity score", "setting": "[2]; shRNA: shPPFIA1_1", "result": 0, "unit": "DSS"}, {"measurement": "drug sensitivity score", "setting": "[2]; shRNA: shScramble", "result": 0.4, "unit": "DSS"}]}
{"smiles": "O=[N+]([O-])c1ccc2c(c1)S(=O)(=O)C=C2", "note": "[Stattic]", "values": [{"measurement": "drug sensitivity score", "setting": "[1]; shRNA: shPPFIA1_1", "result": 4.4, "unit": "DSS"}, {"measurement": "drug sensitivity score", "setting": "[1]; shRNA: shScramble", "result": 7.2, "unit": "DSS"}, {"measurement": "drug sensitivity score", "setting": "[2]; shRNA: shPPFIA1_1", "result": 6.6, "unit": "DSS"}, {"measurement": "drug sensitivity score", "setting": "[2]; shRNA: shScramble", "result": 9.4, "unit": "DSS"}]}
{"smiles": "CC(C)n1cnc2c(NCCc3ccc(O)cc3)nc(-c3csc4ccccc34)nc21", "note": "[StemRegenin 1]", "values": [{"measurement": "drug sensitivity score", "setting": "[1]; shRNA: shPPFIA1_1", "result": 0.8, "unit": "DSS"}, {"measurement": "drug sensitivity score", "setting": "[1]; shRNA: shScramble", "result": 0.4, "unit": "DSS"}, {"measurement": "drug sensitivity score", "setting": "[2]; shRNA: shPPFIA1_1", "result": 2.3, "unit": "DSS"}, {"measurement": "drug sensitivity score", "setting": "[2]; shRNA: shScramble", "result": 0.2, "unit": "DSS"}]}
{"smiles": "CN(N=O)C(=O)N[C@@H](C=O)[C@@H](O)[C@H](O)[C@H](O)CO", "note": "[Streptozocin]", "values": [{"measurement": "drug sensitivity score", "setting": "[1]; shRNA: shPPFIA1_1", "result": 0, "unit": "DSS"}, {"measurement": "drug sensitivity score", "setting": "[1]; shRNA: shScramble", "result": 0, "unit": "DSS"}, {"measurement": "drug sensitivity score", "setting": "[2]; shRNA: shPPFIA1_1", "result": 0.1, "unit": "DSS"}, {"measurement": "drug sensitivity score", "setting": "[2]; shRNA: shScramble", "result": 0.3, "unit": "DSS"}]}
{"smiles": "CCN(CC)CCNC(=O)c1c(C)[nH]c(/C=C2\\C(=O)Nc3ccc(F)cc32)c1C", "note": "[Sunitinib]", "values": [{"measurement": "drug sensitivity score", "setting": "[1]; shRNA: shPPFIA1_1", "result": 0, "unit": "DSS"}, {"measurement": "drug sensitivity score", "setting": "[1]; shRNA: shScramble", "result": 0, "unit": "DSS"}, {"measurement": "drug sensitivity score", "setting": "[2]; shRNA: shPPFIA1_1", "result": 0, "unit": "DSS"}, {"measurement": "drug sensitivity score", "setting": "[2]; shRNA: shScramble", "result": 1.1, "unit": "DSS"}]}
{"smiles": "CC(C)(O)CC(=O)NCCn1ccc2ncnc(Nc3ccc(Oc4cccc(C(F)(F)F)c4)c(Cl)c3)c21", "note": "[TAK-285]", "values": [{"measurement": "drug sensitivity score", "setting": "[1]; shRNA: shPPFIA1_1", "result": 0, "unit": "DSS"}, {"measurement": "drug sensitivity score", "setting": "[1]; shRNA: shScramble", "result": 0, "unit": "DSS"}, {"measurement": "drug sensitivity score", "setting": "[2]; shRNA: shPPFIA1_1", "result": 0.9, "unit": "DSS"}, {"measurement": "drug sensitivity score", "setting": "[2]; shRNA: shScramble", "result": 0, "unit": "DSS"}]}
{"smiles": "N#Cc1c(Oc2ccc(F)c(NC(=O)Cc3cccc(C(F)(F)F)c3)c2)ccc2nc(NC(=O)C3CC3)sc12", "note": "[TAK-632]", "values": [{"measurement": "drug sensitivity score", "setting": "[1]; shRNA: shPPFIA1_1", "result": 17.8, "unit": "DSS"}, {"measurement": "drug sensitivity score", "setting": "[1]; shRNA: shScramble", "result": 5.3, "unit": "DSS"}, {"measurement": "drug sensitivity score", "setting": "[2]; shRNA: shPPFIA1_1", "result": 1.6, "unit": "DSS"}, {"measurement": "drug sensitivity score", "setting": "[2]; shRNA: shScramble", "result": 8.7, "unit": "DSS"}]}
{"smiles": "CCc1nc(-c2cccc(C)c2)c(-c2ccnc(NC(=O)c3ccccc3)c2)s1", "note": "[TAK-715]", "values": [{"measurement": "drug sensitivity score", "setting": "[1]; shRNA: shPPFIA1_1", "result": 0.3, "unit": "DSS"}, {"measurement": "drug sensitivity score", "setting": "[1]; shRNA: shScramble", "result": 0, "unit": "DSS"}, {"measurement": "drug sensitivity score", "setting": "[2]; shRNA: shPPFIA1_1", "result": 0, "unit": "DSS"}, {"measurement": "drug sensitivity score", "setting": "[2]; shRNA: shScramble", "result": 0.8, "unit": "DSS"}]}
{"smiles": "Cn1c(=O)c(F)c(Nc2ccc(I)cc2F)c2c(=O)n(C[C@@H](O)CO)cnc21", "note": "[TAK-733]", "values": [{"measurement": "drug sensitivity score", "setting": "[1]; shRNA: shPPFIA1_1", "result": 6.9, "unit": "DSS"}, {"measurement": "drug sensitivity score", "setting": "[1]; shRNA: shScramble", "result": 8.8, "unit": "DSS"}, {"measurement": "drug sensitivity score", "setting": "[2]; shRNA: shPPFIA1_1", "result": 4.8, "unit": "DSS"}, {"measurement": "drug sensitivity score", "setting": "[2]; shRNA: shScramble", "result": 12.8, "unit": "DSS"}]}
{"smiles": "CCS(=O)(=O)c1cccc(-c2cc(C(=O)NC3CCN(C)CC3)c(C)c3[nH]c4ncc(C)cc4c23)c1", "note": "[TAK-901]", "values": [{"measurement": "drug sensitivity score", "setting": "[1]; shRNA: shPPFIA1_1", "result": 0, "unit": "DSS"}, {"measurement": "drug sensitivity score", "setting": "[1]; shRNA: shScramble", "result": 0, "unit": "DSS"}, {"measurement": "drug sensitivity score", "setting": "[2]; shRNA: shPPFIA1_1", "result": 0, "unit": "DSS"}, {"measurement": "drug sensitivity score", "setting": "[2]; shRNA: shScramble", "result": 3.6, "unit": "DSS"}]}
{"smiles": "Cc1cccc(-c2[nH]c(CNc3ccccc3F)nc2-c2ccc3ncnn3c2)n1", "note": "[TEW-7197]", "values": [{"measurement": "drug sensitivity score", "setting": "[1]; shRNA: shPPFIA1_1", "result": 0.9, "unit": "DSS"}, {"measurement": "drug sensitivity score", "setting": "[1]; shRNA: shScramble", "result": 0, "unit": "DSS"}, {"measurement": "drug sensitivity score", "setting": "[2]; shRNA: shPPFIA1_1", "result": 9.1, "unit": "DSS"}, {"measurement": "drug sensitivity score", "setting": "[2]; shRNA: shScramble", "result": 0, "unit": "DSS"}]}
{"smiles": "Nc1nc(N)c2nc(-c3cccc(O)c3)c(-c3cccc(O)c3)nc2n1", "note": "[TG100-115]", "values": [{"measurement": "drug sensitivity score", "setting": "[1]; shRNA: shPPFIA1_1", "result": 0, "unit": "DSS"}, {"measurement": "drug sensitivity score", "setting": "[1]; shRNA: shScramble", "result": 0, "unit": "DSS"}, {"measurement": "drug sensitivity score", "setting": "[2]; shRNA: shPPFIA1_1", "result": 5.7, "unit": "DSS"}, {"measurement": "drug sensitivity score", "setting": "[2]; shRNA: shScramble", "result": 19, "unit": "DSS"}]}
{"smiles": "Cc1cc(C(C)Nc2ccccc2)c2nc(N3CCOCC3)cc(=O)n2c1", "note": "(centres undefined) [TGX-221]", "values": [{"measurement": "drug sensitivity score", "setting": "[1]; shRNA: shPPFIA1_1", "result": 0.6, "unit": "DSS"}, {"measurement": "drug sensitivity score", "setting": "[1]; shRNA: shScramble", "result": 0, "unit": "DSS"}, {"measurement": "drug sensitivity score", "setting": "[2]; shRNA: shPPFIA1_1", "result": 0, "unit": "DSS"}, {"measurement": "drug sensitivity score", "setting": "[2]; shRNA: shScramble", "result": 3.2, "unit": "DSS"}]}
{"smiles": "Nc1nc(NC2CC2)cc(-c2cccc(Cl)c2Cl)n1", "note": "[TH588]", "values": [{"measurement": "drug sensitivity score", "setting": "[1]; shRNA: shPPFIA1_1", "result": 0.6, "unit": "DSS"}, {"measurement": "drug sensitivity score", "setting": "[1]; shRNA: shScramble", "result": 0.5, "unit": "DSS"}, {"measurement": "drug sensitivity score", "setting": "[2]; shRNA: shPPFIA1_1", "result": 0.9, "unit": "DSS"}, {"measurement": "drug sensitivity score", "setting": "[2]; shRNA: shScramble", "result": 0.8, "unit": "DSS"}]}
{"smiles": "NC(=O)Nc1sc(-c2ccc(F)cc2)cc1C(N)=O", "note": "[TPCA-1]", "values": [{"measurement": "drug sensitivity score", "setting": "[1]; shRNA: shPPFIA1_1", "result": 0.9, "unit": "DSS"}, {"measurement": "drug sensitivity score", "setting": "[1]; shRNA: shScramble", "result": 0, "unit": "DSS"}, {"measurement": "drug sensitivity score", "setting": "[2]; shRNA: shPPFIA1_1", "result": 0, "unit": "DSS"}, {"measurement": "drug sensitivity score", "setting": "[2]; shRNA: shScramble", "result": 1.9, "unit": "DSS"}]}
{"smiles": "Clc1ccccc1C(c1ccccc1)(c1ccccc1)n1cccn1", "note": "[TRAM-34]", "values": [{"measurement": "drug sensitivity score", "setting": "[1]; shRNA: shPPFIA1_1", "result": 0, "unit": "DSS"}, {"measurement": "drug sensitivity score", "setting": "[1]; shRNA: shScramble", "result": 0, "unit": "DSS"}, {"measurement": "drug sensitivity score", "setting": "[2]; shRNA: shPPFIA1_1", "result": 0, "unit": "DSS"}, {"measurement": "drug sensitivity score", "setting": "[2]; shRNA: shScramble", "result": 0, "unit": "DSS"}]}
